Experimental data as given in patent publication US7732401B2, “Inhibitor of TGF-β activation reaction” (Riken, priority 2007, dated 2010).
“Also recorded” adds a separate entry of the source. Where no end group is shown, it is not given here.

Experiments:
[1] = tested on: endotoxin (LPS)-preadministered partially-hepatectomized mice; test: LPS-preadministered partially-hepatectomized mice model for impaired liver regeneration, PCNA staining; assay type: in vivo, mouse; conditions: Example 2, 200 μg/head i.v., 8 times; for improvement of impaired liver regeneration due to preadministration of LPS: PCNA staining, FIG. 3 and 4
[2] = molecular target: T1, plasma kallikrein (Homo sapiens, UniProt P03952); test: Cleavage of recombinant human LAP by plasma kallikrein, Western blot semi-quantitative analysis; assay type: biochemical; conditions: Example 3, peptide 2.5 mg/ml, 37° C., 40 minutes, FIG. 6
T1 construct: purchased SIGMA
Description: When 2 μg of recombinant human LAP R & D) (final concentration: 66 μg/ml) was incubated with plasma kallikrein (SIGMA; final concentration of 20 μg/ml), QP peptide, QPA peptide, T200 peptide, and QPQ peptide (SEQ ID NO: 4) were added thereto at a final concentration of 2.5 mg/ml, followed by incubation at 37° C. for 40 minutes. Thereafter, electrophoresis (room temperature, 27 mA, 50 minutes) was carried out using 13.5% polyacrylamide gel, so as to separate LAP (molecular weight: 41 kDa), a LAP degradation product (molecular weight: 38 kDa), and BSA (final concentration: 0.3 mg/ml; molecular weight: […]) used as an additive. Each separated protein or decomposed product was transferred onto a PVDF membrane by using a semi-dry transferring apparatus. According to the method of Akita et al. (Gastroenterology 123; 352-364, 2002), the membrane was then incubated first with a mouse anti-LAP monoclonal antibody (R & D) at a final concentration of 5 μg/ml or a mouse anti-L59 cleavage section-recognizing monoclonal antibody (homemade; International Publication WO2005/023870) at a final concentration of 20 μg/ml, at room temperature for 60 minutes, and then with a horseradish peroxidase-conjugated goat anti-mouse second antibody (Jackson ImmunoResearch Laboratories) at a final concentration of 1 μg/ml at room temperature for 60 minutes. Bands were then developed using an ECL plus reagent (GE Healthcare), so as to carry out the semi-quantitative analysis of the influence of each peptide on the attenuation of LAP band and the generation of LAP degradation product (FIG. 6).

[3] = tested on: active TGF-β1; test: Amount of active TGF-β1 in conditioned medium of hepatic stellate cells (ELISA); assay type: cell-based, rat; conditions: for amount of active TGF-β generated into the conditioned medium, of the control / TGF-β (active TGF-β generated into the conditioned medium): Example 1, peptide 1 mM; for TGF-β (active TGF-β generated into the conditioned medium): Table 1; for inhibition of generation of the active TGF-β in the conditioned medium observed in control cells: Example 4, peptide 0.5 mM
Description: (§1) According to the method previously reported (Okuno M. et al., Gastroenterology 2001; 120: 1784-1800), hepatic stellate cells were isolated from the liver of male Wistar rats (body weight: 350 to 400 g; Japan Clea), and the isolated cells were then seeded in a concentration of 1×10^6 cells/dish on a 3.5-cm culture plastic dish. Thereafter, the cells were cultured in 1 ml of Dulbecco's modified Eagle medium (DMEM; manufactured by SIGMA) containing 10% fetal calf serum (FCS; manufactured by GIBCO).
(§2) A 60 mM aqueous stock solution of each peptide was prepared, and the peptide was then dissolved in a medium to make a final concentration of 1 mM. Until the 3rd day of isolation, the aforementioned cells were treated in a DMEM medium containing 10% FCS. On the 4th day, the medium was exchanged with serum free DMEM containing 0.1% bovine serum albumin (BSA) and each peptide with a final concentration of 1 mM, and the culture was further continued for 2 to 4 days. Thereafter, the culture medium was collected as a conditioned medium, and the amount of active TGF-β1 present in the conditioned medium was measured using an ELISA kit manufactured by PROMEGA. At the same time, the state of the cells was observed under a microscope (DMIRB; manufactured by Leica) and was then photographed.
(§3) Each peptide was dissolved in a medium to a final concentration of 0.5 mM (approximately 500 μg/ml). At the 1st day of isolation, the aforementioned cells were treated in a DMEM medium containing 10% FCS. On the 2nd day, the medium was changed with serum free DMEM containing 0.1% BSA and each peptide at a final concentration of 0.5 mM, and the culture was further continued for 2 to 7 days. Thereafter, the culture medium was collected as a conditioned medium, and the amount of active TGF-β1 present in the conditioned medium was then quantitated using an ELISA kit manufactured by PROMEGA. At the same time, the state of the cells was observed under a microscope (DMIRB; manufactured by Leica) and photographed.

[4] = tested on: hepatic stellate cells; test: Transformation (activation) of cultured hepatic stellate cells on a plastic dish, observed under a microscope; assay type: cell-based, rat; conditions: for suppression of activation of hepatic stellate cells (morphological change with disappearance of vitamin A-containing oil droplets): Example 1, peptide 1 mM, FIG. 2; for suppression of activation of hepatic stellate cells (morphological change with disappearance of oil droplets containing vitamin A): Example 4, peptide 0.5 mM, FIG. 7
Description: as §1
From day one of isolation of hepatic stellate cells, they were cultured for 7 days with the following peptides added in the medium; QP peptide (Gln-Ile-Leu-Ser-Lys-Leu-Arg-Leu-Ala-Ser-Pro) (SEQ ID NO: 9); QPA peptide (Gln-Ile-Leu-Ser-Ala-Ala-Ala-Leu-Ala-Ser-Pro) (SEQ ID NO: 10); and a control synthetic peptide consisting of 11 amino acids that is derived from a latent TGF-β1 LAP sequence (Thr-Gly-Val-Val-Arg-Gln-Trp-Leu-Ser-Arg-Gly; this is referred to as T200 peptide) (SEQ ID NO: 11) (please refer to FIG. 1), however anticipated not to influence TGF-β activation reaction because of the sequence being apart from the TGF-β activation control region (Gly51 to Arg110) discovered by the present inventors (International Publication WO2005/023870). […] Influence of each peptide on transformation of hepatic stellate cells (which is also referred to as activation of hepatic stellate cells) induced by culturing them on the plastic dish was observed under a microscope.
as §2
In accordance with the method described in Example 1, the influence of each of the QP peptide, QPA peptide, QPQ peptide and T200 peptide on transformation of the cultured hepatic stellate cells, which occurs by culturing cells on a plastic dish, was observed.
as §3

T1 sequence (P03952 20-638, species assumed): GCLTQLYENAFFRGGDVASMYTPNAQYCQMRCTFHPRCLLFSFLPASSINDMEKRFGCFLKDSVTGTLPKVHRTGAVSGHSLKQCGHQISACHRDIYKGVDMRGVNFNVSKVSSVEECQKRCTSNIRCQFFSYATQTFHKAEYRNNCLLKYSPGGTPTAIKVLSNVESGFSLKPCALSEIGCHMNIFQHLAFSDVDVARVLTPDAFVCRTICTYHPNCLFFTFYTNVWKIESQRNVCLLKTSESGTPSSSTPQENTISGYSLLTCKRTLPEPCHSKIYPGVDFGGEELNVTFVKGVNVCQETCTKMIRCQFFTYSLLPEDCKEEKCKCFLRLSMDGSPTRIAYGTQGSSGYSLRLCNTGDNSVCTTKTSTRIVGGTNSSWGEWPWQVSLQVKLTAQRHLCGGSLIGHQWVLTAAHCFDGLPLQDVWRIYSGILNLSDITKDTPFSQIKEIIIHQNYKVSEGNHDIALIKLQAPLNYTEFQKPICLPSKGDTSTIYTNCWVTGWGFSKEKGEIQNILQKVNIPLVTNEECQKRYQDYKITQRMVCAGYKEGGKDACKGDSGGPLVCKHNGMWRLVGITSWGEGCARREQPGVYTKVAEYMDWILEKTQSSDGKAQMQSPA

| inhibition of LAP cleavage reaction (attenuation of LAP band, generation of LAP degradation product) [2] | Substance | percentage of PCNA positive cells ([1]; 48 hours after PH, FIG. 4) [%] | improvement of impaired liver regeneration due to preadministration of LPS [1] | amount of active TGF-β generated into the conditioned medium, of the control [3] [%] | TGF-β (active TGF-β generated into the conditioned medium) [3] [pg/mL] | inhibition of generation of the active TGF-β in the conditioned medium observed in control cells [3] [%] | suppression of activation of hepatic stellate cells (morphological change with disappearance of vitamin A-containing oil droplets) [4] | suppression of activation of hepatic stellate cells (morphological change with disappearance of oil droplets containing vitamin A) [4] | improvement of impaired liver regeneration due to preadministration of LPS ([1]; listed as P200 peptide) |
| --- | --- | --- | --- | --- | --- | --- | --- | --- | --- |
| only a weak inhibitory effect | N-52QILSAAAAASP62-C (QILSAAALASP) [QPA peptide, mutant of QP peptide with Lys56, Leu57, Arg58 and Leu59 substituted with Ala] | 47 | significantly improved | 2 | 4 ± 1 | 25 | significantly suppressed | significantly suppressed | – |
| more strongly than the QP peptide | N-52QILSQQQQASP62-C [QPQ peptide, mutant of QP peptide with Lys56, Leu57, Arg58 and Leu59 substituted with Gln] | – | – | – | – | 90 | – | significantly suppressed; also recorded: strongest suppressing effect | – |
| significantly inhibited | QILSKLRLASP [QP peptide] | – | significantly improved; also recorded: completely improved | – | – | 55 | weakly suppressing effect | significantly suppressed | – |
| only a weak inhibitory effect | TGVVRQWLSRG [T200 peptide, reference compound] | – | did not exhibit such an improving effect | 74 | 160 ± 19 | – | did not exhibit such a suppressing effect | did not exhibit such a suppressing effect | did not exhibited any such improving effects |
